In patent US20250057848A1, “GAL475 COMPOSITIONS AND METHODS OF USE THEREOF” (NEURIM PHARMACEUTICALS (1991) LTD., priority 2023, published 2025):

How the values were obtained:
5-HT2B(h) = 5-HT2B(h) (Homo sapiens (Human), UniProt P41595); assay: Receptor binding assay, % inhibition of radioligand binding, 5-HT2B(h); conditions: 30 micromolar GAL475; agonist radioligand; read-out: % inhibition of the binding of radioactively labelled ligand
Protocol: (§1) GAL475 (30 micromolar) was tested in multiple receptor binding assays. The binding was calculated as a % inhibition of the binding of a radioactively labelled ligand specific for each target.
(§2) However, the potency of GAL 475 at these receptors was lower than 1 micromolar and therefore not considered to be pharmacologically interesting. […] GAL475 was subsequently tested for PAM activity at the human NTS1 (FAST-0330I) and NTS2 (FAST-0331I) receptors, at 100-50,000 nanomolar concentrations. Agonist activity of GAL475 is expressed as a percentage of the activity of the reference agonist (Neurotensin) at its EC100 (maximal response) concentration. Antagonist activity of GAL475 is expressed as a percentage of the inhibition of reference agonist activity at its EC80 […] concentration. The assays were conducted with recombinant cell lines.

5-HT7 (h) = 5-HT7 (h) (Homo sapiens (Human), UniProt P34969); assay: Receptor binding assay, % inhibition of radioligand binding, 5-HT7 (h); conditions: 30 micromolar GAL475; agonist radioligand; read-out: % inhibition of the binding of radioactively labelled ligand
Protocol: as §1, §2

[1] = 28 days repeated oral dose with 14-days recovery in rats (body weight, food consumption, tolerability); type: in vivo, rat; conditions: for overall body weight gain Day −1 to Day 28 compared to that of the controls: 80 mg/kg/day oral; for group mean body weight compared to the controls: >40 mg/kg/day oral, end of dosing phase (28 days)
Protocol: One hundred and forty-two (71/sex) rats were randomly assigned to 4 groups and given vehicle [2% (w/v) CMC-Na, 1% (v/v) Tween 80 in 0.1 M phosphate buffer at pH 7.4±0.2] or Gal-475*2HCl at 20, 40 or 80 mg/kg/day once daily for 28 days by the oral gavage route.

[2] = Phase 1 single escalating oral dose study in healthy male volunteers (body weight, tolerability); type: in vivo, human
Protocol: The effects of an oral dose of GAL-475 (capsules of 450 mg) in 12 healthy male volunteers was tested in a Phase 1, randomized, placebo-controlled, double-blind, first in man single escalating dose study.
The study drug (GAL475) at 50, 150, 450 mg dosages, or placebo were administered on the morning of Day 1. Subjects fasted for 8 hours prior to the intake of study drug or placebo and for at least 4 hours following dosing.
The subject's body weight was measured on day −1 and at the follow up visit (day 7) using a validated balance. Body weight was recorded with 1 decimal.

[3] = system: al adrenoreceptor (non-selective); assay: Receptor binding assay, % inhibition of radioligand binding, al adrenoreceptor (non-selective); conditions: 30 micromolar GAL475; antagonist radioligand
Protocol: as §1, §2

[4] = Acute gastric emptying (charcoal slurry) in rats; type: in vivo, Sprague-Dawley rat; conditions: 3 mg/kg IV
Protocol: Naive male Sprague-Dawley rats (239-297 g) were used to evaluate the effect on gastric emptying of a single dose of 3 mg/kg GAL-475 IV.
Rats were fasted 16-18 hours prior to the start of the experiment and then were given a bolus dose of either vehicle (1% tween-80 2% CMC) or GAL475 (3 mg/kg, IV) via the lateral tail vein. 5 minutes after dosing, rats were gavaged with a charcoal slurry (5 ml/kg, 10% charcoal in 2.5% Arabic gum from acacia tree) and then returned to their cages. 20 minutes after receiving the slurry, rats were euthanized using CO2. The stomachs were excised, weighed, emptied, washed and reweighed. Gastric content was calculated as the difference between full and empty weights. Increased gastric content was interpreted as a decrease in gastric emptying food retention).

[5] = 28 day repeated oral dose with 14-day recovery in Beagle dogs (body weight gain, food consumption); type: in vivo, Beagle dog; conditions: for decrease in food consumption / decrease in body weight gain: 7.5, 15, or 30 mg/kg/day oral; for decrease in food consumption: dosing phase; for decrease in body weight gain: dosing phase up to 28 days
Protocol: Thirty-two (16/sex) dogs were randomly assigned to 4 groups and orally administered vehicle (2% (w/v) CMC-Na, 1% (v/v) Tween 80 in 0.1 M phosphate buffer at pH 7.4) or Gal-475*2HCl at 7.5, 15, or 30 mg/kg/day once daily for up to 28 days.

Na+channel (site 2) = assay: Receptor binding assay, % inhibition of radioligand binding, Na+channel (site 2); conditions: 30 micromolar GAL475; antagonist radioligand
Protocol: as §1, §2

5-HT5a(h) = 5-HT5a(h) (Homo sapiens (Human), UniProt P47898); assay: Receptor binding assay, % inhibition of radioligand binding, 5-HT5a(h); conditions: 30 micromolar GAL475; agonist radioligand; read-out: % inhibition of the binding of radioactively labelled ligand
Protocol: as §1, §2

human NTS2 = human NTS2 (Homo sapiens (Human), UniProt O95665); assay: Positive allosteric modulator (PAM) activity at human NTS2 (FAST-0331I), recombinant CHO-K1-mt aequorin cells; type: cell-based; conditions: 100-50,000 nM
Text: as §2
(§3) GAL475 (100-50,000 nM) was tested for positive allosteric modulator (PAM) activity at the human NTS1 (FAST-0330I) and NTS2 (FAST-0331I) receptors (Tables 2 and 3).

human NTS1 = human NTS1 (Homo sapiens (Human), UniProt P30989); assay: Positive allosteric modulator (PAM) activity at human NTS1 (FAST-0330I), recombinant CHO-K1-mt aequorin cells; type: cell-based; conditions: 100-50,000 nM
Text: as §2, §3

[6] = oral gavage once daily 28 days, 20, 40, or 80 mg/kg/day
[7] = 450 mg single oral dose, day −1 to day 7

Chain of human NTS1 (P30989 whole entry): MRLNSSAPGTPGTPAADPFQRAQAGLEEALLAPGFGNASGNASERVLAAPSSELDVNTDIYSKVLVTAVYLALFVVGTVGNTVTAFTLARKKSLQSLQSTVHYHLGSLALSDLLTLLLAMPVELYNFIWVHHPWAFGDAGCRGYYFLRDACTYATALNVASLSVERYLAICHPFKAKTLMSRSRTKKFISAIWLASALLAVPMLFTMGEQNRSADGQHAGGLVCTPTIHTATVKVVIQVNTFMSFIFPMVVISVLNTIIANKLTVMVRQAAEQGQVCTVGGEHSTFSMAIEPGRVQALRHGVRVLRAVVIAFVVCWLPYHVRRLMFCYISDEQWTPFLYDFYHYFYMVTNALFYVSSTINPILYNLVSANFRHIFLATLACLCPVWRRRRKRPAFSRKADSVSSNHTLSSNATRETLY
Chain of 5-HT5a(h) (P47898 whole entry, the tested form may be a part): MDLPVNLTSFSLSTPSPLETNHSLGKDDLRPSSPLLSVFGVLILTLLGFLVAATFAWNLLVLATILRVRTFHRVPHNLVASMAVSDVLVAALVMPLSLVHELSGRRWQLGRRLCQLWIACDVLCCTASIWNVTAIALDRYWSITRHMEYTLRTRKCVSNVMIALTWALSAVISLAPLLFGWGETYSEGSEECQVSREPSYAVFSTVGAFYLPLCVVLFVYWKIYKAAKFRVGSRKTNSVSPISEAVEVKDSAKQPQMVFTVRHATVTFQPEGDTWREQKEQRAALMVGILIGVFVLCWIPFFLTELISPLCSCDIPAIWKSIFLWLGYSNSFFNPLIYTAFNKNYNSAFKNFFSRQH
Chain of human NTS2 (O95665 whole entry): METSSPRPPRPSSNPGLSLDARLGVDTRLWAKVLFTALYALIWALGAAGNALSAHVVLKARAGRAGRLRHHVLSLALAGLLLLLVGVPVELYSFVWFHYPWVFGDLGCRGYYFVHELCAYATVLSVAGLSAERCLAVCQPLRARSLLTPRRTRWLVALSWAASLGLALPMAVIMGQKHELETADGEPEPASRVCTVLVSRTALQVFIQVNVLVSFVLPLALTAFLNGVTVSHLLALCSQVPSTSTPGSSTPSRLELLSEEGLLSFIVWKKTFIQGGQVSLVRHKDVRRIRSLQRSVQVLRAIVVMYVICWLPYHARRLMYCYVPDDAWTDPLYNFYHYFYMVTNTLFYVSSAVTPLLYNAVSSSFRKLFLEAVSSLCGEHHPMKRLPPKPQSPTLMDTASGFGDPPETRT
Chain of 5-HT2B(h) (P41595 whole entry, the tested form may be a part): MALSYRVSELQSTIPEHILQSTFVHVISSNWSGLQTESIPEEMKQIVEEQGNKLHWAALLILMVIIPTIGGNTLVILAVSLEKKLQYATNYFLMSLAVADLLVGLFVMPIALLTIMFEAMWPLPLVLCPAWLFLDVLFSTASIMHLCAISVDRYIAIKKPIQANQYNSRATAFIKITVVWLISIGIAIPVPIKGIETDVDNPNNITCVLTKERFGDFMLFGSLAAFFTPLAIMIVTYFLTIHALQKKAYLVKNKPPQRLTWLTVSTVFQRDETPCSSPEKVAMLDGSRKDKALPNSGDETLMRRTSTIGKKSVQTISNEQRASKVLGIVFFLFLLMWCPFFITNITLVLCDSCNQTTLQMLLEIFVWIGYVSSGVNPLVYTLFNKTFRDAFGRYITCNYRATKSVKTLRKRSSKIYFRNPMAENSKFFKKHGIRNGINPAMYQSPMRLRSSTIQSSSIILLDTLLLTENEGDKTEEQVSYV
Chain of 5-HT7 (h) (P34969 whole entry, the tested form may be a part): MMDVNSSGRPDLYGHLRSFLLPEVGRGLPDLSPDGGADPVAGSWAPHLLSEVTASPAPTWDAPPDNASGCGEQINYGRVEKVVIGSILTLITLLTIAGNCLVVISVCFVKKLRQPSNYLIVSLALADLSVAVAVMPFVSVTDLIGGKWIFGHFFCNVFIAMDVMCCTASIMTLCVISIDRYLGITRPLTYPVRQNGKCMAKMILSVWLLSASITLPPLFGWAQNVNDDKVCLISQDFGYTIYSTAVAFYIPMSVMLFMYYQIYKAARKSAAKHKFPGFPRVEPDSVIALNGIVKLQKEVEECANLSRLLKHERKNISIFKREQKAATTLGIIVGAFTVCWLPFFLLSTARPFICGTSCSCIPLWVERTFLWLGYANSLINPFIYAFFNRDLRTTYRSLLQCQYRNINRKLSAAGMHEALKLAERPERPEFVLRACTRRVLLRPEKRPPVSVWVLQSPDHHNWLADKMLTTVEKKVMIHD

CCCNc1nc(NC)nc2c(NCC(C)(C)O)nc(NC)nc12 [GAL475, 1-(2,6-Bis-methylamino-8-propylamino-pyrimido[5,4-d]pyrimidin-4-ylamino)-2-methyl-propan-2-ol]
inhibition at 30 µM (5-HT2B(h)): 75%
inhibition at 30 µM (5-HT7 (h)): 79%
weight loss compared to vehicle ([1]; 40 mg/Kg body weight per day, 28 days): meaningful weight loss
body weight gain during recovery phase compared to controls ([1]; 80 mg/kg/day, 2 weeks recovery phase): comparable or greater body weight gain
group mean food consumption compared with control group ([1]; both sexes, >40 mg/kg/day, dosing phase): significant reduced
food intake at the end of recovery phase ([1]; end of recovery phase): reversed
overall body weight gain Day −1 to Day 28 compared to that of the controls ([1]; females): 79%
group mean body weight compared to the controls ([1]; females): −4.70%
overall body weight gain Day −1 to Day 28 compared to that of the controls ([1]; males): 71%
group mean body weight compared to the controls ([1]; males): −7.35%
test article-related adverse effects in clinical signs, food consumption, clinical pathology, or pathology [1, 6]: no test article-related adverse effects
tolerability [1, 6]: well tolerated
subjects with mild headaches on the day of capsule intake ([2]; 50 mg single oral dose): 2 of the 6
subjects with mild headaches on the day of capsule intake ([2]; 150 mg single oral dose): 0 of the 6
subjects with mild headaches on the day of capsule intake ([2]; 450 mg single oral dose): 5 of the 6
change in body weight, average [2, 7]: -0.6 kg
change in body weight, range [2, 7]: −0.1 to −1.6 kg
tolerability ([2]; single oral dose 50, 150, 450 mg): well tolerated except for mild headaches
% inhibition of the binding of radioactively labelled ligand [3]: 67.1%
gastric emptying compared to vehicle ([4]; p<0.05): significantly decreased
gastric content retention higher compared to vehicle controls ([4]; up to 25 minutes after administration): up to 105%
decrease in body weight compared to vehicle ([5]; 28 days): 25%
food consumption compared to vehicle ([5]; 28 days): dramatic decrease
% inhibition of the binding of radioactively labelled ligand (Na+channel (site 2)): 75.1%
inhibition at 30 µM (5-HT5a(h)): 50.6%
% Activation Average at maximal concentration (human NTS2): 0.21%
Hill Coefficient (human NTS1): 11.62
% Activation Average at maximal concentration (human NTS1; CHO-K1-mt aequorin): 26.48%
EC50 (human NTS1; CHO-K1-mt aequorin): 355 nM

CCCNc1nc(NC)nc2c(NCC(C)(C)O)nc(NC)nc12.Cl.Cl [Gal-475*2HCl, 1-(2,6-Bis-methylamino-8-propylamino-pyrimido[5,4-d]pyrimidin-4-ylamino)-2-methyl-propan-2-ol bis hydrochloride]
decrease in food consumption ([5]; females): ≤ 98%
decrease in body weight gain ([5]; females): ≤ 29.9%
decrease in food consumption ([5]; males): up to 81%
decrease in body weight gain ([5]; males): up to 22.7%
body weight gain and food consumption during the recovery phase ([5]; recovery phase): comparable with the control
